Counter-ions that a name gives are not always drawn. Like-named read-outs stand apart in the source and are kept apart here.
System: human basophils
Test: Inhibition of histamine release from immunologically stimulated human basophils
Format: cell-based
Conditions: concentration causing 50% inhibition of histamine release, by linear regression, active if IC50 ≦ 48 µM
Protocol: The blood is allowed to sediment at room temperature in two 50 ml polycarbonate centrifuge tubes until a sharp interface develops between the red cells and plasma (60-90 minutes). The plasma (top) layer from each tube is withdrawn by pipet and transferred to respective 50 ml polycarbonate tubes. The plasma is centrifuged for 8 minutes at 110X G at 4°C. The supernatant is carefully poured off as completely as possible and the cell button is resuspended in 2-3 ml of Tris-A buffer using a siliconized Pasteur pipet. The resuspension is accomplished by drawing the liquid gently in an out of the pipet, with the tip below the liquid until an even suspension of cells is obtained. Sufficient Tris-A buffer is then added to bring the volume in the tube to about 45 ml and the tube is centrifuged at 110X G for 8 minutes at 4°C. The supernatant is poured off and the cell button is resuspended and centrifuged as described above. The supernatant is poured off and the cell button is suspended in 2-3 ml of Tris-ACM buffer to make the final volume sufficient to allow addition to the reaction tubes. Reaction tubes containing anti-IgE or antigens, either alone or with test compound in a total volume of 0.2 ml are prepared and placed in a 37°C bath. The cells are warmed to 37°C and frequently swirled to ensure an even suspension, while 1.0 ml aliquots are added to each reaction tube. The tubes are then incubated for 60 minutes at 37°C, vortexing the tubes gently every 15 minutes to keep the cells evenly suspended. When the reaction is complete, the tubes are centrifuged at 4°C for 10 minutes at 1500 rpm to sediment the cells. […] Blanks and totals are included in each test. The blanks have cells and all reagents except antigen or anti-IgE. The totals contain 0.24 ml of 8% perchloric acid, one ml of cells and 0.2 ml of buffer. All samples are then centrifuged to remove the precipitate protein. […] The automated system consists of the following Technicon Autoanalyzer II components Sampler IV, Dual-Speed Proportioning Pump III, Fluoronephelometer with a narrow pass primary filter 7-60 and a secondary filter 3-74, Recorder, and Digital Printer. The manifold used is the one described by Siraganian vide supra, with the following modifications: the dialyzer is omitted; all pumping tubes pass through a single proportioning pump with large capacity and twice the volume of sample is taken for anaylsis. The automated chemistry consists of the following steps: Extraction from alkaline saline into butanol, back extraction into dilute hydrochloric acid by addition of heptane, reaction of histamine with o-phthaldialdehyde (OPT) at high pH and conversion of the OPT adduct to a stable fluorophore with phosphoric acid. The reaction product is then passed through the fluorometer. The full scale response is adjusted to 50 ng histamine base with a threshold sensitivity of approximately 0.5 ng. The instrument blank (wash) is substracted from the ng histamine of each sample. Then the ng histamine of each sample is divided by the mean of the three totals (cells lysed with perchloric acid) to obtain percent release. Control samples contain antigen but no test compound. Blank (or spontaneous release) samples contain neither antigen nor test compound. The mean of the blanks (three replicates) is subtracted from the percent release for controls and test compounds.

[1] = dihydrochloride, read-out: IC50

Cc1cc(C)cc(Nc2nccc(-c3ccco3)n2)c1 [N-(3,5-Dimethylphenyl)-4-(2-furanyl)-2-pyrimidinamine]
IC50 (Homo sapiens, read-out: IC50): 700 nM

CN(C)c1cccc(Nc2nccc(-c3ccccn3)n2)c1 [N,N-Dimethyl-N'-[4-(2-pyridinyl)-2-pyrimidinyl]-1,3-benzenediamine, dihydrochloride]
IC50 [1]: 500 nM

Cc1cc(C)c(Nc2nccc(-c3ccncc3)n2)c(C)c1 [4-(4-Pyridinyl)-N-(2,4,6-trimethylphenyl)-2-pyrimidinamine]
IC50 (Homo sapiens, read-out: IC50): 10500 nM

CCN(CC)c1ccc(Nc2nccc(-c3cc4ccccc4o3)n2)cc1 [N'-[4-(2-Benzofuranyl)-2-pyrimidinyl]-N,N-diethyl-1,4-benzenediamine]
IC50 (Homo sapiens, read-out: IC50): 6200 nM

CNc1ccc(Nc2nccc(-c3ccccn3)n2)cc1 [N-Methyl-N'-[4-(2-pyridinyl)-2-pyrimidinyl]-1,4-benzenediamine]
IC50 (Homo sapiens, read-out: IC50): 1400 nM

COc1ccc(Nc2nccc(-c3cccs3)n2)cc1 [N-(4-Methoxyphenyl)-4-(2-thienyl)-2-pyrimidinamine]
IC50 (Homo sapiens, read-out: IC50): 3900 nM

Cc1cnc(Nc2ccccc2)nc1-c1ccco1 [4-(2-Furanyl)-5-methyl-N-phenyl-2-pyrimidinamine, sulfate]
IC50 (sulfate): 5000 nM

CCN(CC)CCOc1cccc(Nc2nccc(-c3ccncc3)n2)c1 [N-[3-[2-(Diethylamino)ethoxy]phenyl]-4-(4-pyridinyl)-2-pyrimidinamine]
IC50 (Homo sapiens, read-out: IC50): 700 nM

Cc1cccc(Nc2nccc(-c3ccsc3)n2)c1 [N-(3-Methylphenyl)-4-(3-thienyl)-2-pyrimidinamine]
IC50 (Homo sapiens, read-out: IC50): 3800 nM

CC(=O)Nc1ccc(Nc2nccc(-c3ccncc3)n2)cc1C [N-[2-Methyl-4-[[4-(4-pyridinyl)-2-pyrimidinyl]amino]phenyl]acetamide]
IC50 (Homo sapiens, read-out: IC50): 1200 nM

CN(C)c1cccc(Nc2nccc(-c3ccncc3)n2)c1 [N,N-Dimethyl-N'-[4-(4-pyridinyl)-2-pyrimidin-yl]-1,3-benzenediamine, dihydrochloride]
IC50 [1]: 500 nM

CC(C)c1ccc(Nc2nccc(-c3cccnc3)n2)cc1 [N-[4-(1-Methylethyl)phenyl]-4-(3-pyridinyl)-2-pyrimidinamine]
IC50 (Homo sapiens, read-out: IC50): 1100 nM

Cc1cccc(Nc2nccc(-c3ccccn3)n2)c1 [N-(3-Methylphenyl)-4-(2-pyridinyl)-2-pyrimidinamine]
IC50 (Homo sapiens, read-out: IC50): 700 nM

CN(C)CCCOc1ccc(Nc2nccc(-c3cccnc3)n2)cc1 [N-[4-[3-(Dimethylamino)propoxy]phenyl]-4-(3-pyridinyl)-2-pyrimidinamine]
IC50 (Homo sapiens, read-out: IC50): 500 nM

FC(F)(F)c1cccc(Nc2nccc(-c3cccnc3)n2)c1 [4-(3-Pyridinyl)-N-[3-(trifluoromethyl)phenyl]-2-pyrimidinamine, hydrochloride]
IC50 (Homo sapiens, read-out: IC50): 700 nM

CCN(CC)CCOc1ccc(Nc2nccc(-c3ccncc3)n2)cc1 [N-[4-[2-(Diethylamino)ethoxy]phenyl]-4-(4-pyridinyl)-2-pyrimidinamine]
IC50 (Homo sapiens, read-out: IC50): 200 nM

CCc1ccc(Nc2nc(C)cc(-c3ccc(C)nc3)n2)cc1 [N-(4-Ethylphenyl)-6-methyl-4-(6-methyl-3-pyridinyl)-2-pyrimidinamine]
IC50 (Homo sapiens, read-out: IC50): 19100 nM

Cc1cc(-c2ccccn2)nc(Nc2ccc(N(C)C)cc2)n1 [N,N-Dimethyl-N'-[4-methyl-6-(2-pyridinyl)-2-pyrimidinyl]-1,4-benzenediamine]
IC50 (Homo sapiens, read-out: IC50): 31800 nM

COc1cccc(Nc2nccc(-c3ccc(C)s3)n2)c1 [N-(3-Methoxyphenyl)-4-(5-methyl-2-thienyl)-2-pyrimidinamine]
IC50 (Homo sapiens, read-out: IC50): 2300 nM

Cc1cc(C)cc(Nc2nccc(-c3ccccn3)n2)c1 [N-(3,5-Dimethylphenyl)-4-(2-pyridinyl)-2-pyrimidinamine]
IC50 (read-out: IC50): 1000 nM

COc1ccc(Nc2nccc(-c3cccnc3)n2)cc1 [N-(4-Methoxyphenyl)-4-(3-pyridinyl)-2-pyrimidinamine, phosphate]
IC50 (phosphate, read-out: IC50): 3200 nM

FC(F)(F)c1cccc(Nc2nccc(-c3ccccn3)n2)c1 [4-(2-Pyridinyl)-N-[3-(trifluoromethyl)phenyl]-2-pyrimidinamine, sulfate]
IC50 (sulfate): 3000 nM

Cc1cc(C)cc(Nc2ncc(C)c(-c3ccco3)n2)c1 [N-(3,5-Dimethylphenyl)-4-(2-furanyl)-5-methyl-2-pyrimidinamine]
IC50 (Homo sapiens, read-out: IC50): < 24000 nM

CCc1ccc(Nc2nccc(-c3ccc(C)s3)n2)cc1 [N-(4-Ethylphenyl)-4-(5-methyl-2-thienyl)-2-pyrimidinamine]
IC50 (Homo sapiens, read-out: IC50): 36300 nM

Nc1cccc(Nc2nccc(-c3cccnc3)n2)c1 [N-[4-(3-Pyridinyl)-2-pyrimidinyl]-1,3-benzenediamine, dihydrochloride]
IC50 (Homo sapiens, read-out: IC50): 400 nM

CN(C)c1cccc(Nc2nccc(-c3ccncc3)n2)c1 [N,N-Dimethyl-N'-[4-(4-pyridinyl)-2-pyrimidinyl)]-1,3-benzene] [N,N-Dimethyl-N'-[4-(4-pyridinyl)-2-pyrimidinyl)]-1,3-benzenediamine, sulfate]
IC50 (read-out: IC50): 1000 nM

c1ccc(-c2ccnc(Nc3cccc4ccccc34)n2)nc1 [N-1-Naphthalenyl-4-(2-pyridinyl)-2-pyrimidinamine]
IC50 (Homo sapiens, read-out: IC50): 3000 nM

FC(F)(F)c1cccc(Nc2nccc(-c3cccnc3)n2)c1 [4-(3-Pyridinyl)-N-[3-(trifluoromethyl)phenyl]-2-pyrimidinamine, sulfate]
IC50 (sulfate): 2600 nM

FC(F)(F)c1cc(Nc2nccc(-c3ccccn3)n2)ccc1-n1ccnc1 [N-[4-(1H-Imidazol-1-yl)-3-(tri-fluoromethyl)phenyl]-4-(2-pyridin-yl)-2-pyrimidinamine]
IC50 (Homo sapiens, read-out: IC50): 1600 nM

c1ccc(Nc2nccc(-c3ccncc3)n2)cc1 [N-Phenyl-4-(4-pyridinyl)-2-pyrimidinamine]
IC50 (read-out: IC50): 900 nM

CN(C)CCOc1ccc(N(CCN(C)C)c2nccc(-c3ccncc3)n2)cc1 [N-[4-[2-(Dimethylamino)ethoxy]phenyl]-N',N'-dimethyl-N-[4-(4-pyridinyl)-2-pyrimidinyl]-1,2-ethanediamine]
IC50 (Homo sapiens, read-out: IC50): 9100 nM

Oc1ccccc1Nc1nccc(-c2cccnc2)n1 [2-[[4-(3-Pyridinyl)-2-pyrimidinyl]amino]phenol]
IC50 (Homo sapiens, read-out: IC50): 23500 nM

CC(C)(C)c1ccc(Nc2nccc(-c3cccnc3)n2)cc1 [N-[4-(1,1-Dimethylethyl)phenyl]-4-(3-pyridinyl)-2-pyrimidinamine]
IC50 (Homo sapiens, read-out: IC50): 700 nM

CCc1ccc(Nc2nccc(-c3ccnc4ccccc34)n2)cc1 [N-(4-Ethylphenyl)-4-(4-quinolinyl)-2-pyrimidinamine]
IC50 (Homo sapiens, read-out: IC50): 4000 nM

CNC(=O)c1ccc(Nc2nccc(-c3cccnc3)n2)cc1 [N-Methyl-4-[[4-(3-pyridinyl)-2-pyrimidinyl]amino]benzamide]
IC50 (Homo sapiens, read-out: IC50): 4600 nM

c1cc(Nc2nccc(-c3ccco3)n2)cc(-n2ccnc2)c1 [4-(2-Furanyl)-N-[3-(1H-imidazol-1-yl)phenyl]-2-pyrimidinamine]
IC50 (Homo sapiens, read-out: IC50): 800 nM

Cc1cc(-c2ccc(C)s2)nc(Nc2ccccc2)n1 [4-Methyl-6-(5-methyl-2-thienyl)-N-phenyl-2-pyrimidinamine]
IC50 (Homo sapiens, read-out: IC50): 24800 nM

CC(=O)Nc1cccc(Nc2nccc(-c3cccnc3)n2)c1 [N-[3-[[4-(3-Pyridinyl)-2-pyrimidinyl]amino]-phenyl]acetamide]
IC50 (Homo sapiens, read-out: IC50): 5000 nM

COc1cccc(Nc2nccc(-c3cc(C)oc3C)n2)c1 [N-(3-Methoxyphenyl)-4-(2,5-dimethyl-3-furanyl)-2-pyrimidinamine]
IC50 (Homo sapiens, read-out: IC50): 5800 nM

c1cc(Nc2nccc(-c3cccs3)n2)cc(-n2ccnc2)c1 [N-[3-(1H-Imidazol-1-yl)phenyl]-4-(2-thienyl)-2-pyrimidinamine]
IC50 (Homo sapiens, read-out: IC50): 200 nM

CCc1ccc(Nc2nccc(-c3cccn3C)n2)cc1 [N-(4-Ethylphenyl)-4-(1-methyl-1H-pyrrol-2-yl)-2-pyrimidinamine]
IC50 (Homo sapiens, read-out: IC50): < 48000 nM

Reference: patent publication EP0233461B2, “4,5,6-Substituted-2-pyrimidinamines” (AMERICAN CYANAMID COMPANY, priority 1986, dated 1987)
